The source of these data is ChEMBL document CHEMBL1201862, “PubChem BioAssay data set” (2004).

Some test systems named below: OVCAR-4; NCI-H226; OVCAR-8; SNB-75; 786-0; HCT-15; RXF 393; HL-60; NCI-H460; UO-31; M14; SF-295; OVCAR-5; HCT-116; Malme-3M; SF-539; UACC-257; TK-10; SK-MEL-2.
What all share (test): inhibition of tumour cell growth, NCI panel, 48 h

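Five concentrations, 48 hours, 96-well plates. The concentration for 50% growth inhibition is given as GI50.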 Activity calls are given as the source filed them. Rule as the data show it: active = GI50 up to about 1.1 µM and inactive = higher.

Regarding `O/N=C(\c1nc2ccc(Cl)cc2nc1O)C(O)c1ccc(Cl)cc1Cl` (centres undefined), the GI50 in the test with OVCAR-4 was > 100 µM (inactive); in the test on NCI-H226 it was > 100 µM (inactive); with OVCAR-8, > 100 µM (inactive); with SNB-75, > 100 µM (inactive); in the test with 786-0 it was > 100 µM (inactive); with HCT-15 it was > 100 µM. Moreover, the GI50 with RXF 393, in the test with HL-60, with NCI-H460, with UO-31, in the test with M14 and in the test on SF-295 was > 100 µM (inactive) each time. In addition, the GI50 in the test with OVCAR-5, in the test on HCT-116, in the test on Malme-3M, in the test with SF-539 and with UACC-257 was > 100 µM (inactive) each time.
Regarding `C/C(CC(=O)Nc1ccc(Cl)c(Cl)c1)=N/NC(=O)C[n+]1ccccc1`, the GI50 with OVCAR-4 was > 100 µM (inactive); in the test on NCI-H226, > 100 µM (inactive); in the test with OVCAR-8 it was > 100 µM (inactive); in the test on 786-0 it was 43.1 µM (inactive); in the test on HCT-15, 30.5 µM; in the test on RXF 393, > 100 µM (inactive). The GI50 with HL-60 was 44.4 µM (inactive); in the test with NCI-H460, 77.4 µM (inactive); in the test with UO-31, > 100 µM (inactive); in the test with M14, > 100 µM (inactive); with SF-295, > 100 µM (inactive); in the test on TK-10 it was > 100 µM (inactive). Besides, the GI50 in the test on OVCAR-5, with HCT-116, with SK-MEL-2, with Malme-3M, in the test with SF-539 and in the test on UACC-257 was > 100 µM (inactive) throughout.
For `COCC(O)CN1C(N)=NC(O)C1O` (centres undefined), the GI50 in the test with NCI-H226, in the test with OVCAR-8, in the test with SNB-75, in the test with 786-0, in the test on RXF 393 and with HL-60 was > 100 µM (inactive) in each case. Further, the GI50 with NCI-H460, in the test with UO-31, in the test with M14, in the test with SF-295, in the test on TK-10 and in the test with OVCAR-5 was > 100 µM (inactive) in each case. The GI50 with SK-MEL-2, in the test on Malme-3M, in the test with SF-539 and with UACC-257 was > 100 µM (inactive) throughout.
Turning to `O=c1cccccc1NCCCNc1cccccc1=O`, the GI50 in the test with NCI-H226 was > 100 µM (inactive); in the test on OVCAR-8, > 100 µM (inactive); in the test with 786-0, > 100 µM (inactive); in the test on HCT-15 it was > 100 µM; in the test with RXF 393, > 100 µM (inactive); with HL-60 it was 43.2 µM (inactive). For the same compound, the GI50 in the test on NCI-H460 was 41.6 µM (inactive); in the test with UO-31, > 100 µM (inactive); with M14 it was > 100 µM (inactive); in the test with SF-295 it was > 100 µM (inactive); in the test on OVCAR-5, > 100 µM (inactive); in the test on HCT-116 it was > 100 µM (inactive). Also, the GI50 in the test on SK-MEL-2 was > 100 µM (inactive); with Malme-3M, 11.9 µM (inactive); with SF-539, > 100 µM (inactive); with UACC-257, > 100 µM (inactive).
For `CC(=O)OC(=O)O/C=C\CCl`, the GI50 was > 100 µM (inactive) with OVCAR-4; > 100 µM (inactive) in the test on NCI-H226; > 100 µM (inactive) in the test on OVCAR-8; > 100 µM (inactive) in the test on SNB-75; > 100 µM (inactive) with 786-0; > 100 µM with HCT-15. The GI50 in the test with RXF 393 was > 100 µM (inactive); with HL-60 it was 29.4 µM (inactive); with NCI-H460, > 100 µM (inactive); in the test on UO-31, > 100 µM (inactive); in the test with M14, > 100 µM (inactive); in the test with TK-10, > 100 µM (inactive). The GI50 in the test on HCT-116, with SK-MEL-2, in the test with Malme-3M, with SF-539 and with UACC-257 was > 100 µM (inactive) throughout.
